Data: ChEMBL document CHEMBL1201862, “PubChem BioAssay data set” (2004)
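48-hour exposure; five concentrations; linearly interpolated endpoints. GI50 is the concentration that inhibits growth by half.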 Calls of active or inactive are those of the source. Rule as the data show it: active = GI50 up to about 1.1 µM and inactive = higher.

Tests used:
Assay in all cases: NCI-60 cell line screen, 48 h
DLD-1 = test system: DLD-1
DMS-114 = test system: DMS-114
DMS-273 = test system: DMS-273
KM-20L2 = test system: KM-20L2
RXF 631 = test system: RXF 631
XF498 = test system: XF498
M19-MEL = test system: M19-MEL
SNB-78 = test system: SNB-78
HOP-18 = test system: HOP-18

| Structure (SMILES) | GI50 (DLD-1) | GI50 (DMS-114) | GI50 (DMS-273) | GI50 (KM-20L2) | GI50 (RXF 631) | GI50 (XF498) | GI50 (M19-MEL) | GI50 (SNB-78) | GI50 (HOP-18) |
| --- | --- | --- | --- | --- | --- | --- | --- | --- | --- |
| COc1ccc(/C(=N/Nc2ccccc2)C(c2ccc(OC)cc2)C2OC(=O)c3ccccc32)cc1 (stereo unspecified) | > 10 µM (inactive) | 50 µM (inactive) | > 100 µM (inactive) | 36.6 µM (inactive) | > 100 µM (inactive) | > 100 µM (inactive) |  |  |  |
| CN(C)c1ccc(/C=C(\NC(=O)c2ccccc2)c2nc3cncnc3[nH]2)cc1 | > 100 µM (inactive) | > 100 µM (inactive) |  | > 100 µM (inactive) | > 100 µM (inactive) | > 100 µM (inactive) | > 100 µM (inactive) | > 100 µM (inactive) |  |
| CC(=O)Nc1c(C)ccc2c1C(=O)c1ccccc1C2=O | > 100 µM (inactive) | 35.2 µM (inactive) | > 100 µM (inactive) |  |  |  | > 100 µM (inactive) | > 100 µM (inactive) | > 100 µM (inactive) |
| S=C1NC(c2ccccc2)=NC(Cc2ccccc2)(c2ccccc2)N1c1ccccc1 (stereo unspecified) | > 100 µM (inactive) | > 100 µM (inactive) |  | > 100 µM (inactive) | > 100 µM (inactive) |  | > 100 µM (inactive) | > 100 µM (inactive) | 97.1 µM (inactive) |
| CN1N=CSC12C(=O)N(c1ccc(Cl)cc1)C(=O)N2c1ccc(Cl)cc1 (stereo unspecified) | 4.06 µM (inactive) | 1.87 µM (inactive) |  | 3.21 µM (inactive) |  |  | 3.37 µM (inactive) | 3.98 µM (inactive) | 3.43 µM (inactive) |
| CCOCN/C(N)=N\C#N | > 100 µM (inactive) | > 100 µM (inactive) | > 100 µM (inactive) | 89.1 µM (inactive) |  | > 100 µM (inactive) | > 100 µM (inactive) | > 100 µM (inactive) | > 100 µM (inactive) |
| N=C(N)Nc1nc2cc(N)ccc2o1 | > 100 µM (inactive) |  |  | > 100 µM (inactive) | > 100 µM (inactive) |  | > 100 µM (inactive) | > 100 µM (inactive) | > 100 µM (inactive) |
| CCCN1CN(C(C(=O)N[C@@H]2C(=O)N3C(C(=O)O)=C(C)CSC23)c2ccc(O)cc2)CSC1=S (stereo partly specified) | > 100 µM (inactive) | 52.4 µM (inactive) | > 100 µM (inactive) | > 100 µM (inactive) |  | > 100 µM (inactive) | > 100 µM (inactive) | > 100 µM (inactive) | > 100 µM (inactive) |
| COc1c(CC(=O)c2ccccc2)c2ccccc2n1C(C)=O | > 100 µM (inactive) | > 100 µM (inactive) | > 100 µM (inactive) | > 100 µM (inactive) | > 100 µM (inactive) | > 100 µM (inactive) | > 100 µM (inactive) | > 100 µM (inactive) | > 100 µM (inactive) |
| O=C1C(Cl)C(c2ccc(Cl)cc2)N1n1cnc2ccccc2c1=O (stereo unspecified) | > 100 µM (inactive) | 42.3 µM (inactive) | 30.3 µM (inactive) | > 100 µM (inactive) |  | 80.7 µM (inactive) | > 100 µM (inactive) | > 100 µM (inactive) | 57.5 µM (inactive) |
| COC1C(O)CC(OC2CC(OC3CC(O[C@@H]4C(=O)c5c(cc6cc(OC7CC(OC8CC(O)C(O)C(C)O8)C(O)C(C)O7)c(C)c(O)c6c5O)C[C@H]4[C@H](OC)C(=O)[C@@H](O)[C@@H](C)O)OC(C)C3O)OC(C)C2O)OC1C (stereo partly specified) | 0.177 µM (active) | 0.0272 µM (active) | < 0.0168 µM (active) | 0.0223 µM (active) |  | < 0.01 µM (active) | 0.0109 µM (active) | < 0.01 µM (active) | 0.0211 µM (active) |
| O=C1N(Cl)C(=O)C(c2ccc(Cl)cc2)(c2ccc(Cl)cc2)N1Cl | 62.2 µM (inactive) | 39.9 µM (inactive) | > 100 µM (inactive) | > 100 µM (inactive) |  | > 100 µM (inactive) | 39.7 µM (inactive) |  | > 100 µM (inactive) |
| Cn1cc2ccccc2c1-c1nc(N)nc(F)n1 | > 100 µM (inactive) | 85.3 µM (inactive) | > 100 µM (inactive) | > 100 µM (inactive) | > 100 µM (inactive) | > 100 µM (inactive) | 54.3 µM (inactive) | > 100 µM (inactive) |  |
| CS(=O)(=O)OCCN(CCOS(C)(=O)=O)c1ccc(/C=N/N=c2/nc[nH]c3nc[nH]c23)cc1 | 26.8 µM (inactive) | 10.9 µM (inactive) | 14.9 µM (inactive) | 21.5 µM (inactive) |  | 21.2 µM (inactive) | 20.5 µM (inactive) | 24.2 µM (inactive) | 34.6 µM (inactive) |
| COc1ccc2nc(NC(=O)C(=O)C(C#N)c3ccc(CC#N)cc3)sc2c1 (stereo unspecified) | > 100 µM (inactive) |  | > 100 µM (inactive) | > 100 µM (inactive) |  |  | > 100 µM (inactive) | > 100 µM (inactive) | > 100 µM (inactive) |
| CCOc1ccc(NC(=O)C(=O)C(C(=O)c2ccc3ccccc3c2)C2OC(=O)c3ccccc32)cc1 (stereo unspecified) | 7.87 µM (inactive) | 14.8 µM (inactive) | 7.35 µM (inactive) | 37.6 µM (inactive) |  | 13.8 µM (inactive) | 13.4 µM (inactive) | 4.91 µM (inactive) | 17.7 µM (inactive) |
| O=C1c2cc(CCl)sc2C(=O)c2ccsc21 | 0.933 µM (active) | 0.163 µM (active) | 0.306 µM (active) | 1.45 µM (inactive) |  | 1.73 µM (inactive) | < 0.01 µM (active) | 0.292 µM (active) | 0.264 µM (active) |
| CCOC(=O)c1cc(OC(=O)CC)c2c(OC)ccc(OC)c2c1 | > 100 µM (inactive) | 45 µM (inactive) | 35.5 µM (inactive) | > 10 µM (inactive) |  | > 100 µM (inactive) | 67.6 µM (inactive) |  | > 100 µM (inactive) |
| CNC(=O)C(C)Oc1ccc(OCC2CCCCC2)cc1 (stereo unspecified) | > 100 µM (inactive) | 59.7 µM (inactive) | > 100 µM (inactive) |  |  |  | > 100 µM (inactive) | > 100 µM (inactive) | 16.3 µM (inactive) |
| NC1=Nc2ccccc2Sc2ccccc21 | > 100 µM (inactive) | > 100 µM (inactive) | > 100 µM (inactive) | > 100 µM (inactive) |  | 52.1 µM (inactive) | > 100 µM (inactive) | > 100 µM (inactive) | 0.912 µM (active) |
| CC(C)(C)S(=O)OC12CC3CC(CC(C3)C1)C2 (stereo unspecified) |  | > 100 µM (inactive) | > 100 µM (inactive) | > 100 µM (inactive) |  | > 100 µM (inactive) | > 100 µM (inactive) | > 100 µM (inactive) |  |
| CN1CCN(C)C1c1cccc(C2N(C)CCN2C)c1 | > 100 µM (inactive) | > 100 µM (inactive) | > 100 µM (inactive) | > 100 µM (inactive) | > 100 µM (inactive) |  | > 100 µM (inactive) | > 100 µM (inactive) |  |
| O=C(C#Cc1ccccc1)NC/C=C/c1ccccc1 | 43.1 µM (inactive) | 46.6 µM (inactive) |  | 44.9 µM (inactive) |  |  | 60.1 µM (inactive) | 29.9 µM (inactive) | > 100 µM (inactive) |
| CC(C)(C)c1cc(C(O)(C(F)(F)F)C(F)(F)F)c2c(c1)C(C(F)(F)F)(C(F)(F)F)OC(c1ccccc1)(C(C)(C)C)N2 (stereo unspecified) | 3.76 µM (inactive) | 2.82 µM (inactive) | 3.61 µM (inactive) | 4.92 µM (inactive) |  | 3.6 µM (inactive) | 3.56 µM (inactive) | 8.28 µM (inactive) | 0.515 µM (active) |
| NC1=NS(=O)(=O)Nc2nc(-c3cccs3)[nH]c21 | > 100 µM (inactive) |  | > 100 µM (inactive) | > 100 µM (inactive) |  |  | > 100 µM (inactive) |  | > 100 µM (inactive) |
| Nc1nc[n+](Cc2ccccc2CCO)c2[nH]cnc12 |  | > 100 µM (inactive) | > 100 µM (inactive) | > 100 µM (inactive) | > 100 µM (inactive) | > 100 µM (inactive) | > 100 µM (inactive) |  | > 100 µM (inactive) |
| CCCCCCCCCCCCCP(=O)(O)NCC(N)=O | 43.9 µM (inactive) | 32.2 µM (inactive) |  | 98.6 µM (inactive) | 84.3 µM (inactive) | 64.6 µM (inactive) | 80.7 µM (inactive) |  | 22 µM (inactive) |
| C#CC1(O)CCC2[C@@H]3CCc4cc(Oc5nc(F)nc(-c6c7ccccc7cn6C)n5)ccc4C3CC[C@@]21C (stereo partly specified) | > 48.2 µM (inactive) | 35.8 µM (inactive) | > 66.1 µM (inactive) | > 100 µM (inactive) |  | > 100 µM (inactive) | > 100 µM (inactive) | > 100 µM (inactive) | > 100 µM (inactive) |
| COc1cccc2c1[C@]1(O)C(O)CCCC21 (stereo partly specified) | > 100 µM (inactive) | > 100 µM (inactive) | > 100 µM (inactive) | > 100 µM (inactive) |  |  | > 100 µM (inactive) | > 100 µM (inactive) | 90.4 µM (inactive) |
